Target: T1, SMYD2 (Homo sapiens, UniProt Q9NRG4)
T1 construct: Full length SMYD2 (NP_064582.2) was cloned; His6 (N, cleaved yes); FLAG (N); made in house; host or cells: Sf9 insect cells
Experiment: SMYD2 biochemical assay (3H-SAM, biotinylated peptide substrate, Flashplate)
Conditions: Table 1; average of n = 1 to n = 50; read-out: SMYD2 Biochem IC50
Description: S-adenosylmethionine (SAM), S-adenosylhomocysteine (SAH), bicine, Tween20, dimethylsulfoxide (DMSO), bovine skin gelatin (BSG), and Tris(2-carboxyethyl)phosphine hydrochloride (TCEP) were purchased from Sigma-Aldrich at the highest level of purity possible. ^3H-SAM was purchase from American Radiolabeled Chemicals with a specific activity of 80 Ci/mmol. 384-well streptavidin Flashplates were purchased from PerkinElmer.
Peptide was synthesized with a N-terminal linker-affinity tag motif and a C-terminal amide cap by 21st Century Biochemicals. The peptide was high high-performance liquid chromatography (HPLC) purified to greater than 95% purity and confirmed by liquid chromatography mass spectrometry (LC-MS). The sequence was […](K-Biot)-amide. (SEQ ID NO: 3)
Full length SMYD2 (NP_064582.2) was cloned into a pFastbac-Htb-lic vector with an N-terminal His6 tag and FLAG tag, preceded by a TEV protease cleavage site. The protein was expressed in Sf9 insect cells. Cells were resuspended in lysis buffer (25 mM HEPES-NaOH, pH 7.5, 200 mM NaCl, 5% glycerol, and 5 mM […] and lysed by sonication. The protein was purified by Ni-NTA (Qiagen), followed by TEV cleavage to remove the His6 tag, subtractive Ni-NTA (Qiagen), and gel filtration chromatography using an S200 column (GE Healthcare). Purified protein was stored in 20 mM Tris-HCl, pH 8.0, 100 mM NaCl, and 1 mM TCEP.
General Procedure for SMYD2 Enzyme Assays on Peptide Substrates
The assays were all performed in a buffer consisting of 20 mM Bicine (pH=7.6), 1 mM TCEP, 0.005% Bovine Skin Gelatin, and 0.002% Tween20, prepared on the day of use. Compounds in 100% DMSO (1 ul) were spotted into a polypropylene 384-well V-bottom plates (Greiner) using a Platemate Plus outfitted with a 384-channel head (Thermo Scientific). DMSO (1 ul) was added to Columns 11, 12, 23, 24, rows A-H for the maximum signal control and 1 ul of SAH, a known product and inhibitor of SMYD2, was added to columns 11, 12, 23, 24, rows I-P for the minimum signal control. A cocktail (40 ul) containing the SMYD2 enzyme was added by Multidrop Combi (Thermo-Fisher). The compounds were allowed to incubate with SMYD2 for 30 min at room temperature, then a cocktail (10 ul) containing ^3H-SAM and peptide was added to initiate the reaction (final volume=51 ul). The final concentrations of the components were as follows: SMYD2 was 1.5 nM, ^3H-SAM was 10 nM, and peptide was 60 nM, SAH in the minimum signal control wells was 1000 uM, and the DMSO concentration was 2%. The assays were stopped by the addition of non-radioactive SAM (10 ul) to a final concentration of 600 uM, which dilutes the ^3H-SAM to a level where its incorporation into the peptide substrate is no longer detectable. 50 ul of the reaction in the 384-well polypropylene plate was then transferred to a 384-well Flashplate and the biotinylated peptides were allowed to bind to the streptavidin surface for at least 1 hour before being washed three times with 0.1% Tween20 in a Biotek ELx405 plate washer. The plates were then read in a PerkinElmer TopCount plate reader to measure the quantity of ^3H-labeled peptide bound to the Flashplate surface, measured as disintegrations per minute (dpm) or alternatively, referred to as counts per minute (cpm).
Where dpm=disintegrations per minute, cmpd=signal in assay well, and min and max are the respective minimum and maximum signal controls.
Where top and bottom are the normally allowed to float, but may be fixed at 100 or 0 respectively in a 3-parameter fit. The Hill Coefficient normally allowed to float but may also be fixed at 1 in a 3-parameter fit. I is the compound concentration.
SMYD2 biochemical assay data for representative Compounds of the Disclosure are presented in Tables 1, 3, and 4 in the column titled “SMYD2 Bicohem IC50 (μM).”

T1 sequence (Q9NRG4 whole entry): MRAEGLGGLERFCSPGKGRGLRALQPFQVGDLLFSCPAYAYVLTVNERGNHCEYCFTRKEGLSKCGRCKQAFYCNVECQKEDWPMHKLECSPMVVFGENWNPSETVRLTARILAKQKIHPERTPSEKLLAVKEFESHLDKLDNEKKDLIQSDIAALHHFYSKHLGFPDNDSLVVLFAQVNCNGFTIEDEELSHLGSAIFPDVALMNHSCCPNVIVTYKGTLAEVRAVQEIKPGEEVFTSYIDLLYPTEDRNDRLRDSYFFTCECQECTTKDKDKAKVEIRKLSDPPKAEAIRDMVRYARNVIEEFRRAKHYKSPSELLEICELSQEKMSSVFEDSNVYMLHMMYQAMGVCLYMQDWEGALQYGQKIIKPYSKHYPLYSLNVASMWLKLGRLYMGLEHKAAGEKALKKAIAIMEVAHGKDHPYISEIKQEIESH

IC50	Compound
> 50 µM	C[C@H]1CN(C2CC2)C[C@H]1NC(=O)c1ccc2[nH]c(=O)oc2c1 (racemic) [compound 14, (±)-cis-N-(1-cyclopropyl-4-methylpyrrolidin-3-yl)-2-oxo-2,3-dihydrobenzo[d]oxazole-6-carboxamide]
> 50 µM	C[C@H]1CN(C2CC2)C[C@@H]1NC(=O)Cc1ccc2c(c1)NC(=O)CO2 (racemic) [compound 3, (±)-trans-N-(1-cyclopropyl-4-methylpyrrolidin-3-yl)-2-(3-oxo-3,4-dihydro-2H-benzo[b][1,4]oxazin-6-yl)acetamide]
> 50 µM	C[C@H]1CN(C2CC2)C[C@@H]1NC(=O)c1ccc2c(c1)OC(F)(F)O2 (racemic) [compound 1, (±)-trans-N-(1-cyclopropyl-4-methylpyrrolidin-3-yl)-2,2-difluorobenzo[d][1,3]dioxole-5-carboxamide]
> 50 µM	C[C@H]1CN(C2CC2)C[C@H]1NC(=O)c1ccc(N2CCCC2)cc1 (racemic) [compound 21, (±)-cis-N-(1-cyclopropyl-4-methylpyrrolidin-3-yl)-4-(pyrrolidin-1-yl)benzamide]

Same assay, conditions: Table 3; average of n = 1 to n = 50; read-out: SMYD2 Biochem IC50

IC50	Compound
> 50 µM	CC(C)N1C[C@@H](C)[C@H](NC(=O)c2cc(C3CC3)ncn2)C1 (racemic) [compound 68, (±)-trans-6-cyclopropyl-N-[4-methyl-1-(propan-2-yl)pyrrolidin-3-yl]pyrimidine-4-carboxamide]
> 50 µM	CC(C)N1C[C@H](C)[C@H](NC(=O)c2cc3c(cn2)OC(F)(F)O3)C1 (racemic) [compound 75, (±)-cis-2,2-difluoro-N-[4-methyl-1-(propan-2-yl)pyrrolidin-3-yl]-2H-[1,3]dioxolo[4,5-c]pyridine-6-carboxamide]
0.694 µM	CC(C)N1C[C@H](C)[C@H](NC(=O)c2cc(C3CC3)ccn2)C1 (racemic) [compound 105, (±)-cis-4-cyclopropyl-N-[4-methyl-1-(propan-2-yl)pyrrolidin-3-yl]pyridine-2-carboxamide]
> 50 µM	CC(C)N1C[C@H](C)[C@H](NC(=O)c2cc(C3CC3)ns2)C1 (racemic) [compound 91, (±)-cis-3-cyclopropyl-N-[4-methyl-1-(propan-2-yl)pyrrolidin-3-yl]-1,2-thiazole-5-carboxamide]
0.424 µM	CC(C)N1C[C@@H](C)[C@@H](NC(=O)c2cc(C3CC3)cnn2)C1 (stereo in doubt) [compound 110, (±)-cis-5-cyclopropyl-N-[4-methyl-1-(propan-2-yl)pyrrolidin-3-yl]pyridazine-3-carboxamide]
> 50 µM	CC(C)N1C[C@H](C)[C@H](NC(=O)CCN2CCCC2)C1 (racemic) [compound 56, (±)-cis-N-[4-methyl-1-(propan-2-yl)pyrrolidin-3-yl]-3-(pyrrolidin-1-yl)propanamide]
> 50 µM	CC(C)N1C[C@H](C)[C@H](NC(=O)c2cnc(C3CC3)o2)C1 (racemic) [compound 78, (±)-cis-2-cyclopropyl-N-[4-methyl-1-(propan-2-yl)pyrrolidin-3-yl]-1,3-oxazole-5-carboxamide]
0.574 µM	C[C@H]1CN(Cc2ccccc2)C[C@H]1NC(=O)c1cc(C2CC2)cnn1 (racemic) [compound 99, (±)-cis-N-(1-benzyl-4-methylpyrrolidin-3-yl)-5-cyclopropylpyridazine-3-carboxamide]
> 50 µM	CC(C)N1C[C@@H](C)[C@H](NC(=O)c2ncc(C3CC3)cn2)C1 (racemic) [compound 66, (±)-trans-5-cyclopropyl-N-[4-methyl-1-(propan-2-yl)pyrrolidin-3-yl]pyrimidine-2-carboxamide]
19.6 µM	CC(C)N1C[C@H](C)[C@H](NC(=O)c2csnc2C2CC2)C1 (racemic) [compound 92, (±)-cis-3-cyclopropyl-N-[4-methyl-1-(propan-2-yl)pyrrolidin-3-yl]-1,2-thiazole-4-carboxamide]
> 50 µM	CN(C)C1CCC(NC(=O)c2cn(C3CC3)nn2)C1 (stereo not drawn) [compound 122, 1-cyclopropyl-N-[3-(dimethylamino)cyclopentyl]-1H-1,2,3-triazole-4-carboxamide]
> 50 µM	CC(C)N1C[C@H](C)[C@H](NC(=O)c2ccc(C3CC3)nn2)C1 (racemic) [compound 109, (±)-cis-6-cyclopropyl-N-[4-methyl-1-(propan-2-yl)pyrrolidin-3-yl]pyridazine-3-carboxamide]

Continued, molecule first:

Compound	IC50
CC(C)N1C[C@@H](C)[C@H](NC(=O)c2cnc(C3CC3)cn2)C1 (racemic) [compound 52, (±)-trans-5-cyclopropyl-N-[4-methyl-1-(propan-2-yl)pyrrolidin-3-yl]pyrazine-2-carboxamide]	> 50 µM
C[C@H]1CN(C2CC2)C[C@H]1NC(=O)c1cccc(N2CCCC2)c1 (racemic) [compound 31, (±)-cis-N-[1-cyclopropyl-4-methylpyrrolidin-3-yl]-3-(pyrrolidin-1-yl)benzamide]	> 50 µM
CC(C)N1C[C@H](C)[C@H](NC(=O)c2cnc(C3CC3)cn2)C1 (racemic) [compound 51, (±)-cis-5-cyclopropyl-N-[4-methyl-1-(propan-2-yl)pyrrolidin-3-yl]pyrazine-2-carboxamide]	> 50 µM
CC(C)N1C[C@@H](C)[C@H](NC(=O)c2cn(C3CC3)nn2)C1 (racemic) [compound 26, (±)-trans-1-cyclopropyl-N-[4-methyl-1-(propan-2-yl)pyrrolidin-3-yl]-1H-1,2,3-triazole-4-carboxamide]	19.3 µM
CC(C)N1C[C@@H](C)[C@H](NC(=O)CCN2CCCC2)C1 (racemic) [compound 55, (±)-trans-N-[4-methyl-1-(propan-2-yl)pyrrolidin-3-yl]-3-(pyrrolidin-1-yl)propanamide]	> 50 µM
CC(C)N1C[C@@H](C)[C@H](NC(=O)c2cn(C(C)C)nn2)C1 (racemic) [compound 24, (±)-trans-N-[4-methyl-1-(propan-2-yl)pyrrolidin-3-yl]-1-(propan-2-yl)-1H-1,2,3-triazole-4-carboxamide]	> 50 µM
CC1CN(C(C)C)CC1NC(=O)c1ccn(C(C)C)n1 (racemic) [compound 44, (±)-trans-N-[4-methyl-1-(propan-2-yl)pyrrolidin-3-yl]-1-(propan-2-yl)-1H-pyrazole-3-carboxamide]	> 50 µM
CC(C)N1C[C@H](C)[C@H](NC(=O)c2nc(C3CC3)cs2)C1 (racemic) [compound 35, (±)-cis-4-cyclopropyl-N-[4-methyl-1-(propan-2-yl)pyrrolidin-3-yl]-1,3-thiazole-2-carboxamide]	> 50 µM

Same assay, conditions: Table 4; average of n = 1 to n = 50; read-out: SMYD2 Biochem IC50

IC50	Compound
2.7 µM	C[C@H]1CN(Cc2ccc(OCc3ccccc3)cc2)C[C@@H]1NC(=O)c1cc(C2CC2)cnn1 (racemic) [compound 132, rac-N-((3R,4S)-1-(4-(benzyloxy)benzyl)-4-methylpyrrolidin-3-yl)-5-cyclopropylpyridazine-3-carboxamide]
6.4 µM	CC(C)N1C[C@@H](N(C)C(=O)c2cc(C3CC3)cnn2)[C@@H](C)C1 (racemic) [compound 130, rac-5-cyclopropyl-N-((3R,4R)-1-isopropyl-4-methylpyrrolidin-3-yl)-N-methylpyridazine-3-carboxamide]
2.2 µM	CC(C)N1C[C@H](C)[C@H](NC(=O)c2cn(C3CC3)cn2)C1 (stereo in doubt) [compound 123, rac-1-cyclopropyl-N-((3R,4R)-1-isopropyl-4-methylpyrrolidin-3-yl)-1H-imidazole-4-carboxamide]
